The nature of data set [1]: Solubility in ethanol/HFA134a and ethanol/HFA227 mixtures. The data set is classed as physicochemical. Conditions: mixtures of ethanol/HFA134a and ethanol/HFA227.
Data set [2] is described as follows: Chemical degradation on storage in ethanol/HFA134a solution. The data set is classed as physicochemical.

As for `O=C(O)c1ccc2ccccc2c1O.OCc1cc(C(O)CNCCCCCCOCCCCc2ccccc2)ccc1O` (stereo not shown) [R-salmeterol xinafoate], the “solubility relative to racemic salmeterol xinafoate” value in data set [1] is recorded as “significantly more soluble”. Turning to `CCC(=O)O[C@]1(C(=O)SCF)[C@H](C)C[C@H]2[C@@H]3C[C@H](F)C4=CC(=O)C=C[C@]4(C)[C@@]3(F)[C@@H](O)C[C@@]21C` [fluticasone propionate, (6a, 11b, 16a, 17a)-6,9-difluoro-11-hydroxy-16-methyl-3-oxo-17-(1-oxopropoxy) androsta-1,4-diene-17-carbothioic acid, S-fluoromethyl ester], in data set [2], the “chemical degradation on storage” value is on record as “quite stable to chemical degradation”. For the molecule `OCc1cc(C(O)CNCCCCCCOCCCCc2ccccc2)ccc1O` (stereo not drawn) [salmeterol base, 4-hydroxy-α^1-[[[6-(4-phenylbutoxy)hexyl]amino]methyl]-1,3-benzenedimethanol], the “solubility relative to racemic salmeterol xinafoate” value in data set [1] is “substantially more soluble”.

As to `OCc1cc(C(O)CNCCCCCCOCCCCc2ccccc2)ccc1O` (stereo not drawn) [salmeterol, 4-hydroxy-α^1-[[[6-(4-phenylbutoxy)hexyl]amino]methyl]-1,3-benzenedimethanol], in data set [2], the “chemical degradation on storage” value is reported as “shows a tendency to exhibit chemical degradation”.

Source of the values: patent US20030032632A1, “Pharmaceutical aerosol formulation of salmeterol and fluticasone propionate” (priority 1999, published 2003).
